Measurements reported in patent US10513694B2, “Thienopyrrole compounds and uses thereof” (PROMEGA CORPORATION, priority 2015, dated 2019).
Where “and” joins values, the source holds several entries; their conditions need not be identical. Identical values can stand only once.

What follows are molecules tested against NANOLUC® enzyme (Oplophorus gracilirostris, UniProt Q9GV45, A31E/A60N/A81I/F95D/I117V/K70R/L54V/L99Q/M102K/N193R/P142E/Q151K/Q38R/Q45L/V71I/Y165I) (assay: Inhibitor IC50 determination (NANOLUC enzyme, furimazine)). Conditions: 0.4 ng/ml NANOLUC enzyme, final furimazine 10 uM (at Km); read-out: IC50.
Chain of NANOLUC® enzyme (Q9GV45 28-196 with tags or gaps with the stated changes limits assumed): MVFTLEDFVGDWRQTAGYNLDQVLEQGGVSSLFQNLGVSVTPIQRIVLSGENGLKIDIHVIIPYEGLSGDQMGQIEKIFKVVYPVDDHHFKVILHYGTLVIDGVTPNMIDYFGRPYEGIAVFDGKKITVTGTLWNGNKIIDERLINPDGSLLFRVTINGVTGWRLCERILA
Type: biochemical
Protocol: The following example provides the IC50 values for the compounds disclosed herein. See Table 5 NANOLUC® enzyme was diluted to 0.4 ng/ml in CO2 independent media+10% FBS to make the detection reagent. A 3× dilution series of each inhibitor was then made in the detection reagent. A “no inhibitor” control was also made for each sample. 50 ul of each inhibitor dilution was mixed with 50 ul of NanoGlo buffer containing 20 uM furimazine. (Final furimazine concentration is 10 uM which is at Km.), and luminescence measured. Each sample was normalized to the “no inhibitor” control. The […] values were then determined using GraphPad Prism (log [inhibitor] vs. normalized response).
With “N-(trans-4-((6-(3′,6′-dihydroxy-3-oxo-3H-spiro[isobenzofuran-1,9′-xanthene]-5(6)-carboxamido)hexyl)carbamoyl)cyclohexyl)-4-(2-(ethyl(m-tolyl)amino)-2-oxoethyl)-4H-thieno[3,2-b]pyrrole-5-carboxamide [JRW-0200]” the IC50 was 0.078 µM.

Same assay, conditions: IC50 (uM), 0.4 ng/ml NANOLUC enzyme, final furimazine 10 uM (at Km)
In the case of `CCN(C(=O)Cn1c(C(=O)Nc2ccccc2)cc2sccc21)c1cccc(C)c1` [JRW-0143, 4-(2-(ethyl(m-tolyl)amino)-2-oxoethyl)-N-phenyl-4H-thieno[3,2-b]pyrrole-5-carboxamide], the IC50 is reported as 2.8 µM and 2.6 µM. `CCN(C(=O)Cn1c(C(=O)N[C@H]2CC[C@H](C(=O)OC)CC2)cc2sccc21)c1cccc(C#N)c1` [JRW-0321, Methyl trans-4-(4-(2-((3-cyanophenyl)(ethyl)amino)-2-oxoethyl)-4H-thieno[3,2-b]pyrrole-5-carboxamido)cyclohexane-1-carboxylate] was tested, and the IC50 was 0.16 µM. Molecule `CCc1cccc(N(CC)C(=O)Cn2c(C(=O)N[C@H]3CC[C@H](C(=O)NCCCCCCS(=O)(=O)O)CC3)cc3ccccc32)c1` [JRW-0434, Sodium 6-(trans-4-(1-(2-(ethyl(3-ethylphenyl)amino)-2-oxoethyl)-1H-indole-2-carboxamido)cyclohexane-1-carboxamido)hexane-1-sulfonate] has an IC50 of 0.0019 µM. `CCN(C(=O)Cn1c(C(=O)N[C@H]2CC[C@H](C(=O)OC)CC2)cc2sccc21)c1ccccc1` [JRW-0318, Methyl trans-4-(4-(2-(ethyl(phenyl)amino)-2-oxoethyl)-4H-thieno[3,2-b]pyrrole-5-carboxamido)cyclohexane-1-carboxylate] was tested, and the IC50 was 0.11 µM. Molecule `CCN(C(=O)Cn1c(C(=O)N[C@H]2CC[C@H](C(=O)OC)CC2)cc2sccc21)c1cccc(C(C)C)c1` [JRW-0460, Methyl trans-4-(4-(2-(ethyl(3-isopropylphenyl)amino)-2-oxoethyl)-4H-thieno[3,2-b]pyrrole-5-carboxamido)cyclohexane-1-carboxylate] has an IC50 of 0.12 µM. `COC(=O)[C@H]1CC[C@H](NC(=O)c2cc3sccc3n2CC(=O)N2CCCc3cc(C)ccc32)CC1` [JRW-0331, Methyl trans-4-(4-(2-(6-methyl-3,4-dihydroquinolin-1(2H)-yl)-2-oxoethyl)-4H-thieno[3,2-b]pyrrole-5-carboxamido)cyclohexane-1-carboxylate] gave an IC50 of 16.9 µM. In the case of `CCc1cccc(N(CC)C(=O)Cn2c(C(=O)N[C@H]3CC[C@H](C(=O)NCCCCCCO)CC3)cc3ccccc32)c1` [JRW-0430, 1-(2-(Ethyl(3-ethylphenyl)amino)-2-oxoethyl)-N-(trans-4-((6-hydroxyhexyl)carbamoyl)cyclohexyl)-1H-indole-2-carboxamide], the IC50 is reported as 0.0021 µM. Molecule `CCN(C(=O)Cn1c(C(=O)N[C@H]2CC[C@H](C(=O)NCCCCCCO)CC2)cc2sccc21)c1cccc(C)c1` [JRW-0242, 4-(2-(ethyl(m-tolyl)amino)-2-oxoethyl)-N-(trans-4-((6-hydroxyhexyl)carbamoyl)cyclohexyl)-4H-thieno[3,2-b]pyrrole-5-carboxamide] has an IC50 of 0.035 µM. `CCN(C(=O)Cn1c(C(=O)N[C@H]2CC[C@H](C(N)=O)CC2)cc2sccc21)c1cccc(C)c1` [JRW-0052, N-(trans-4-carbamoylcyclohexyl)-4-(2-(ethyl(m-tolyl)amino)-2-oxoethyl)-4H-thieno[3,2-b]pyrrole-5-carboxamide] was tested, and the IC50 was 1.3 µM. `CCN(C(=O)Cn1c(C(=O)N[C@H]2CC[C@H](C(=O)N[C@H]3CC[C@H](C(=O)OC)CC3)CC2)cc2sccc21)c1cccc(C)c1` [JRW-0243, methyl-trans-4-(trans-4-(4-(2-(ethyl(m-tolyl)amino)-2-oxoethyl)-4H-thieno[3,2-b]pyrrole-5-carboxamido)cyclohexane-1-carboxamido)cyclohexane-1-carboxylate] showed an IC50 of 0.21 µM. `CCc1cccc(N(CC)C(=O)Cn2c(C(=O)N[C@H]3CC[C@H](C(=O)OC)CC3)cc3sccc32)c1` [JRW-0326, Methyl trans-4-(4-(2-(ethyl(3-ethylphenyl)amino)-2-oxoethyl)-4H-thieno[3,2-b]pyrrole-5-carboxamido)cyclohexane-1-carboxylate] gave an IC50 of 0.0039 µM. In the case of `CCN(C(=O)Cn1c(C(=O)N2CCCCC2)cc2sccc21)c1cccc(C)c1` [JRW-0009, N-ethyl-2-(5-(piperidine-1-carbonyl)-4H-thieno[3,2-b]pyrrol-4-yl)-N-(m-tolyl)acetamide], the IC50 is reported as 2.7 µM. `CCN(C(=O)Cn1c(C(=O)NC[C@H]2CC[C@H](C(=O)NCCCCCC(=O)O)CC2)cc2sccc21)c1cccc(C)c1` [JRW-0268, 6-(trans-4-((4-(2-(ethyl(m-tolyl)amino)-2-oxoethyl)-4H-thieno[3,2-b]pyrrole-5-carboxamido)methyl)cyclohexane-1-carboxamido)hexanoic acid] showed an IC50 of 4.3 µM. Work on `CCN(C(=O)Cn1c(C(=O)N[C@H]2CC[C@H](C(=O)OC)CC2)cc2sccc21)c1cccc(CO)c1` [JRW-0461, Methyl trans-4-(4-(2-(ethyl(3-(hydroxymethyl)phenyl)amino)-2-oxoethyl)-4H-thieno[3,2-b]pyrrole-5-carboxamido)cyclohexane-1-carboxylate] yielded an IC50 of 0.077 µM. `CCN(C(=O)Cn1c(C(=O)N[C@H]2CC[C@H](C(=O)OC)CC2)cc2sccc21)c1cccc(OC)c1` [JRW-0327, Methyl trans-4-(4-(2-(ethyl(3-methoxyphenyl)amino)-2-oxoethyl)-4H-thieno[3,2-b]pyrrole-5-carboxamido)cyclohexane-1-carboxylate] showed an IC50 of 0.11 µM. For `CCN(C(=O)Cn1c(C(=O)NC2CCN(C(=O)CCCCC(=O)O)CC2)cc2sccc21)c1cccc(C)c1` [JRW-0208, 6-(4-(4-(2-(ethyl(m-tolyl)amino)-2-oxoethyl)-4H-thieno[3,2-b]pyrrole-5-carboxamido)piperidin-1-yl)-6-oxohexanoic acid], the IC50 was 0.82 µM. Work on `CCN(C(=O)Cn1c(C(=O)N[C@H]2CC[C@H](C(=O)OC)CC2)cc2occc21)c1cccc(C)c1` [JRW-360, Methyl trans-4-(4-(2-(ethyl(m-tolyl)amino)-2-oxoethyl)-4H-furo[3,2-b]pyrrole-5-carboxamido)cyclohexane-1-carboxylate] yielded an IC50 of 0.61 µM. `Cc1cccc(NC(=O)Cn2c(C(=O)NC3CCCCC3)cc3sccc32)c1` [JRW-0081, N-cyclohexyl-4-(2-oxo-2-(m-tolylamino)ethyl)-4H-thieno[3,2-b]pyrrole-5-carboxamide] gave an IC50 of 19.4 µM. For `CCN(C(=O)Cn1c(C(=O)N[C@H]2CC[C@H](C(=O)OC)CC2)cc2sccc21)c1ccc(CO)cc1` [JRW-0335, Methyl trans-4-(4-(2-(ethyl(4-(hydroxymethyl)phenyl)amino)-2-oxoethyl)-4H-thieno[3,2-b]pyrrole-5-carboxamido)cyclohexane-1-carboxylate], the IC50 was 1.9 µM. Molecule `CCN(C(=O)Cn1c(C(=O)N[C@H]2CC[C@H](C(=O)OC)CC2)cc2ccsc21)c1cccc(C)c1` [JRW-0463, Methyl trans-4-(6-(2-(ethyl(m-tolyl)amino)-2-oxoethyl)-6H-thieno[2,3-b]pyrrole-5-carboxamido)cyclohexane-1-carboxylate] has an IC50 of 0.71 µM.
